{SH} = thiol (OH replaced by SH), used for disulfide linkage to DM1
Assays:
[1] = molecular target: T1, HER2 (Homo sapiens, UniProt P04626); experiment: Confocal ICC of HER2 localisation / cellular internalization in BT474 cells; type: cell-based; conditions: BT474 cell line, 10 nM, 48 hr, confocal microscope (FIGS. 2A to 2L)
T1 construct: endogenous in cells; host or cells: BT474 breast cancer cells
Method: (2) The cells cultured on 8-well chamber slides were fixed with 4% paraformaldehyde, washed with PBS, and cultured for 10 min with 0.2% Triton X-100. Thereafter, the cells were cultured overnight at 4° C. with primary antibodies in an antibody dilution buffer and then cultured at room temperature for 2 hr with fluorescence-conjugated secondary antibodies. Thereafter, the cells were mounted on ProLong Gold Antifade Reagent containing DAPI (4′,6′-diamidine-2′-phenylindole dihydrochloride). Particularly, each of the cultured breast cancer cell lines was subjected to immunocytochemistry (ICC) using a HER2 antibody, the nucleus thereof was stained with DAPI, and HER2 (red) and nucleus (blue) regions were imaged using a confocal microscope.
(1) ICC was performed using the HER2 antibody.

[2] = system: HER2-positive breast cancer BT474 cell line and HER2-negative breast cancer T47D cell line, co-cultured 1:1; experiment: p-His3 (mitotic arrest marker) ICC in co-cultured HER2-positive and HER2-negative cells; type: cell-based; conditions: for expression of p-His3 depending on HER2 expression (confocal images): BT474/T47D co-culture 1:1, 10 nM, 24 hr (FIG. 3)
Method: (2) HER2 and a mitotic arrest marker, namely phospho-Histone H3 (p-His3), were stained with ICC, and the HER2-positive breast cancer BT474 cell line and the HER2-negative breast cancer T47D cell line, the nuclei of which were stained with DAPI, were co-cultured at a ratio of 1:1 and treated with a control (DMSO), DM1, and Aptamer-DM1 at a concentration of 10 nM for 24 hr. Thereafter, the nuclei (blue), p-His3 (green), and HER2 (red) were imaged using a confocal microscope. The number of cells in which p-His3 was detected was quantified based on whether HER2 was expressed or not.

[3] = system: HER2-positive breast cancer cell lines (SKBR3, BT474, MDA-MB-453); experiment: Apoptosis rate (sub-G1%) by PI DNA content flow cytometry, HER2-positive cell lines; type: cell-based; conditions: 10 nM, 72 hr (FIG. 5); for apoptosis rate (sub-G1%): HER2-positive cell lines SKBR3, BT474, MDA-MB-453
Method: (§1) Thereafter, the apoptosis rate (sub-G1%) of cancer cells was measured through DNA content analysis using flow cytometry.
(§2) (2) Typically, the cell cycle includes, depending on the amount of DNA in cells, G1 (cell growth phase)-S (cell replication phase)-G2/M (cell mitotic phase). […] The results of apoptosis are represented by the percentage of sub-G1 in the cell cycle.

[4] = system: HER2-negative breast cancer cell lines (MCF7, T47D); experiment: Apoptosis rate (sub-G1%) by PI DNA content flow cytometry, HER2-negative cell lines; type: cell-based; conditions: 10 nM, 72 hr (FIG. 5)
Method: as §1, §2

[5] = system: HER2-positive BT474 tumors (compared with HER2-negative T47D tumors); experiment: Breast cancer animal model, tumor volume and TUNEL assay; type: in vivo, BALB/c nude mice; conditions: 1 mg/kg, 2 mg/kg intraperitoneally three times a week
Method: (1) To the fourth breast fat pads of immunodeficient 6-week-old female BALB/c nude mice, HER2-positive BT474 cancer cells (3×10^6 cells) and HER2-negative T47D cancer cells (3×10^6 cells) were transplanted, after which Aptamer-DM1 (1 mg/kg, 2 mg/kg, body weight) was intraperitoneally administered three times a week. Then, the tumor volume was measured for 18 days. The tumor volume (V) was measured using a caliper and calculated according to V=(length×width^2)/2. In the TUNEL assay, the tumors were removed from the mice, fixed with 10% neutral-buffered formalin and embedded in paraffin. The 4 μm thick tissue section was mounted on a positively charged glass slide, deparaffinized with xylene, and […] through a graded alcohol series. After antigen retrieval, the above tissue section was boiled in a citric acid buffer (pH 6.0) and immunofluorescence was performed. In situ TUNEL was performed on the above tissue section using a TUNEL kit (Roche Applied Sciences, Penzberg, GER), and the images thereof were obtained using a confocal scanning microscope.

[6] = system: Trastuzumab-resistant BT474 cell line (BT474-Tra); experiment: Western blot of HER family / AKT signalling in Trastuzumab-resistant BT474 cells; type: cell-based; conditions: 10 nM
Method: For the BT474 and BT474-Tra cell lines, the expression of p185HER2, p95HER2, p-HER2, p-p95HER2, HERS, p-HER3, total-AKT, p-AKT, and PARP was analyzed via Western blot. Cell viability was measured using a CellTiter 96* Aqueous One Solution Cell Proliferation Assay [MTS, 3-(4,5-dimethylthiazol-2-yl)-5-(3-carboxymethoxyphenyl)-2-(4-sulfophenyl)-2H-tetrazolium], and the amount of produced formazan was determined by measuring absorbance at 490 nm using a Spectramax Plus 384 microplate analyzer. In the Western blot, the above cells were lysed in a lysis buffer (30 mM NaCl, 0.5% Triton X-100, 50 mM Tris-HCl; pH 7.4) containing phosphatase and a protease inhibitor, and the supernatant was collected and then the protein was […] using a Bradford protein assay kit. 30 μg of the protein was subjected to SDS-PAGE and electrophoresed with a nitrocellulose membrane. The membrane was cultured overnight at 4° C. with primary antibodies diluted in bovine serum albumin (BSA) and then cultured with horseradish peroxidase (HRP)-conjugated rabbit IgG (1:3000-1:10,000). Signal intensity was measured using an Enhanced Chemiluminescence Kit and an X-ray film, and quantified with AlphaEaseFC software.

[7] = system: JIMT-1 cell line; experiment: Western blot of HER family / AKT signalling in JIMT-1 cells; type: cell-based; conditions: JIMT-1, 10 nM, 72 hr, compared to control, DM1 and Aptamer (FIG. 10)
[8] = system: BT474-Tra cells; experiment: Drug-resistant disease animal model, BT474-Tra tumors; type: in vivo, BALB/c nude mice; conditions: BT474-Tra transplanted mice, 1 mg/kg intraperitoneally, 15 days (FIG. 11)
Method: (§3) Thereafter, the tumor volume was measured for 15 days. The results are shown in FIG. 11, and the results of in-vivo bioluminescence imaging of JIMT-1-transplanted mice are shown in FIG. 12. In-vivo bioluminescence imaging was performed in a manner in which the mice were anesthetized and administered with 150 mg/kg of luciferin, after which the tumor size and the transition state were measured using a bioluminescence imaging system.

[9] = system: JIMT-1 cells; experiment: Drug-resistant disease animal model, JIMT-1 tumors (tumor volume, bioluminescence imaging); type: in vivo, BALB/c nude mice
Method: as §3

[10] = BT474/T47D co-culture, 10 nM, 24 hr (FIG. 4)

Row | Molecule | HER2 localisation (cell membrane expression vs cellular internalization) [1] | expression of p-His3 depending on HER2 expression (confocal images) [2] | proportions of cells in which p-His3 was detected, HER2-positive cell line versus HER2-negative cell line [2, 10] | apoptosis rate (sub-G1%) [3] | apoptosis rate (sub-G1%) [4] | proportion of cells in which p-His3 was detected, HER2-negative cell line [2, 10] | proportion of cells in which p-His3 was detected, HER2-positive cell line [2, 10] | apoptosis rate compared to the DM1-treated group ([3]; HER2-positive cell lines) | tumor growth (tumor volume) ([5]; 18 days, BT474 and T47D transplanted tumors (FIG. 6)) | apoptosis in tumors (TUNEL assay) ([5]; BT474 and T47D tumors (FIG. 7)) | expression of p95HER2 ([6]; BT474-Tra cells, 72 hr (FIG. 10)) | expression of full-length p185HER2, phospho-HER2 (Tyr1221), HER3, phospho-HER3, AKT and phospho-Akt (Ser 43) ([6]; BT474-Tra, 72 hr, compared to control, DM1 and Aptamer (FIG. 10)) | expression of full-length p185HER2, phospho-HER2 (Tyr1221), HER3, phospho-HER3, AKT and phospho-Akt (Ser 43) [7] | tumor volume [8] | luciferin intensity (in-vivo bioluminescence imaging) ([9]; JIMT-1-transplanted mice, 1 mg/kg intraperitoneally (FIG. 12)) | tumor volume ([9]; JIMT-1 transplanted mice, 1 mg/kg intraperitoneally, 15 days (FIG. 11))
1 | COc1cc2cc(c1Cl)N(C)C(=O)C[C@H](OC(=O)[C@H](C)N(C)C(C)=O)[C@]1(C)O[C@H]1[C@H](C)[C@@H]1C[C@@](O)(NC(=O)O1)[C@H](OC)/C=C/C=C(\C)C2 [DM1, maytansine, reference compound] | expression of HER2 on the cell membrane was observed | found regardless of whether HER2 was expressed or not | not significantly different | relatively high apoptosis rate | relatively high apoptosis rate |  |  |  |  |  |  |  |  |  |  | 
2 | Aptamer-DM1: HER2-binding RNA aptamer (SEQ ID NO:1, 3′ thiol, 2′-O-methyl) linked via disulfide bonding to anticancer drug DM1 (GGGAGGACGAUGCGGGACUGUACGGGGCUCUGUGCAGACGACUCGCCCGA; 3' {SH}, sugars by position and backbone not given here; 2'-O-methyl modified, 3' thiol disulfide-linked to DM1) | cellular internalization of HER2 from the cell membrane was observed | detected only in the cells in which HER2 was expressed |  | high | low | considerably decreased | remarkably increased | high apoptosis rate in the HER2-positive cell lines compared to the DM1-treated group | significantly decreased only the growth of HER2-positive BT474 tumors | effectively induced apoptosis only in the HER2-positive BT474 tumors | strongly inhibited | significantly reduced | significantly reduced | significantly reduced the tumor volume | remarkably decreased | significantly reduced the tumor volume

From US20180050114A1, “HER2 APTAMER-ANTICANCER DRUG COMPLEX FOR CANCER CELL CHEMOTHERAPY” (priority 2016, published 2018)
